From the supplement of paper PMC10627819

Key:
Test in all cases: fitness (endpoint OD595 vs no drug) (fraction); higher = more growth
B. subtilis 168 = system: B. subtilis 168
Procedure, shortened: (§1)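 At 37 °C, bacteria in TSB, LB Lennox or CY were grown in 384-well plates from a starting OD595 of 0.01. OD595 was measured every 30 min for 14 h, with the first reading used as background. Fitness is the optical density at the switch to stationary phase as a fraction of the robust mean of no-drug control wells, capped at 1.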

S. pneumoniae D39V = system: S. pneumoniae D39V
Procedure, shortened: as §1

S. aureus Newman = system: S. aureus Newman
Procedure, shortened: as §1
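Further: OD595 on entry to stationary phase over no-drug wells; at most 1.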

## CN(C)[C@@H]1C(O)=C(C(N)=O)C(=O)[C@@]2(O)C(O)=C3C(=O)c4c(O)ccc(Cl)c4[C@@](C)(O)[C@H]3C[C@@H]12 [Chlortetracycline] + C[C@H]1COc2c(N3CCN(C)CC3)c(F)cc3c(=O)c(C(=O)O)cn1c23 [Levofloxacin]
B. subtilis 168; first compound 0.0475 µg/mL, partner 0.001 µg/mL, one replicate
  fitness: 0.924
B. subtilis 168; first compound 0.0475 µg/mL, partner 0.002 µg/mL
  fitness: 0.898
B. subtilis 168; first compound 0.0475 µg/mL, partner 0.0039 µg/mL
  fitness: 0.855
B. subtilis 168; first compound 0.0475 µg/mL, partner 0.0078 µg/mL, one replicate
  fitness: 0.907
B. subtilis 168; first compound 0.0475 µg/mL, partner 0.0312 µg/mL
  fitness: 0.0308
B. subtilis 168; first compound 0.0475 µg/mL, partner 0.0625 µg/mL
  fitness: 0.0341
B. subtilis 168; first compound 0.0475 µg/mL, partner 0.125 µg/mL
  fitness: 0.0327
B. subtilis 168; first compound 0.095 µg/mL, partner 0.001 µg/mL, one replicate
  fitness: 0.912
B. subtilis 168; first compound 0.095 µg/mL, partner 0.002 µg/mL
  fitness: 0.854
B. subtilis 168; first compound 0.095 µg/mL, partner 0.0039 µg/mL
  fitness: 0.854
B. subtilis 168; first compound 0.095 µg/mL, partner 0.0078 µg/mL, one replicate
  fitness: 0.824
B. subtilis 168; first compound 0.095 µg/mL, partner 0.0312 µg/mL
  fitness: 0.0231
B. subtilis 168; first compound 0.095 µg/mL, partner 0.0625 µg/mL
  fitness: 0.0369
B. subtilis 168; first compound 0.095 µg/mL, partner 0.125 µg/mL
  fitness: 0.028
B. subtilis 168; first compound 0.19 µg/mL, partner 0.001 µg/mL, one replicate
  fitness: 0.674
B. subtilis 168; first compound 0.19 µg/mL, partner 0.002 µg/mL
  fitness: 0.593
B. subtilis 168; first compound 0.19 µg/mL, partner 0.0039 µg/mL
  fitness: 0.61
B. subtilis 168; first compound 0.19 µg/mL, partner 0.0078 µg/mL, one replicate
  fitness: 0.623
B. subtilis 168; first compound 0.19 µg/mL, partner 0.0312 µg/mL
  fitness: 0.0218
B. subtilis 168; first compound 0.19 µg/mL, partner 0.0625 µg/mL
  fitness: 0.054
B. subtilis 168; first compound 0.19 µg/mL, partner 0.125 µg/mL
  fitness: 0.032
S. pneumoniae D39V; first compound 0.012 µg/mL, partner 0.1725 µg/mL
  fitness: 0.949
S. pneumoniae D39V; first compound 0.012 µg/mL, partner 0.345 µg/mL
  fitness: 0.803
S. pneumoniae D39V; first compound 0.012 µg/mL, partner 0.69 µg/mL
  fitness: 0.603
S. pneumoniae D39V; first compound 0.024 µg/mL, partner 0.1725 µg/mL
  fitness: 0.909
S. pneumoniae D39V; first compound 0.024 µg/mL, partner 0.345 µg/mL
  fitness: 0.88
S. pneumoniae D39V; first compound 0.024 µg/mL, partner 0.69 µg/mL
  fitness: 0.546
S. pneumoniae D39V; first compound 0.048 µg/mL, partner 0.1725 µg/mL
  fitness: 0.869
S. pneumoniae D39V; first compound 0.048 µg/mL, partner 0.345 µg/mL
  fitness: 0.828
S. pneumoniae D39V; first compound 0.375 µg/mL, partner 0.2 µg/mL
  fitness: 0.0411
S. pneumoniae D39V; first compound 0.375 µg/mL, partner 0.4 µg/mL
  fitness: 0.0338
S. pneumoniae D39V; first compound 0.375 µg/mL, partner 0.8 µg/mL
  fitness: 0.0351
S. pneumoniae D39V; first compound 0.75 µg/mL, partner 0.2 µg/mL
  fitness: 0.0448
S. pneumoniae D39V; first compound 0.75 µg/mL, partner 0.4 µg/mL
  fitness: 0.0671
S. pneumoniae D39V; first compound 0.75 µg/mL, partner 0.8 µg/mL
  fitness: 0.0531
S. pneumoniae D39V; first compound 1.5 µg/mL, partner 0.2 µg/mL
  fitness: 0.0471
S. pneumoniae D39V; first compound 1.5 µg/mL, partner 0.4 µg/mL
  fitness: 0.0332
S. pneumoniae D39V; first compound 1.5 µg/mL, partner 0.8 µg/mL
  fitness: 0.0439

## CN(C)[C@@H]1C(O)=C(C(N)=O)C(=O)[C@@]2(O)C(O)=C3C(=O)c4c(O)ccc(Cl)c4[C@@](C)(O)[C@H]3C[C@@H]12 [Chlortetracycline] + C[C@H]1c2cccc(O)c2C(=O)C2=C(O)[C@]3(O)C(=O)C(C(N)=O)=C(O)[C@@H](N(C)C)[C@@H]3[C@@H](O)[C@@H]21 [Doxycycline]
B. subtilis 168; first compound 0.0475 µg/mL, partner 0.02 µg/mL
  fitness: 0.858
B. subtilis 168; first compound 0.0475 µg/mL, partner 0.04 µg/mL
  fitness: 0.658
B. subtilis 168; first compound 0.095 µg/mL, partner 0.02 µg/mL
  fitness: 0.735
B. subtilis 168; first compound 0.095 µg/mL, partner 0.04 µg/mL
  fitness: 0.553
B. subtilis 168; first compound 0.19 µg/mL, partner 0.08 µg/mL
  fitness: 0.0672
S. pneumoniae D39V; first compound 0.012 µg/mL, partner 0.003875 µg/mL, one replicate
  fitness: 0.909
S. pneumoniae D39V; first compound 0.012 µg/mL, partner 0.00775 µg/mL, one replicate
  fitness: 0.91
S. pneumoniae D39V; first compound 0.012 µg/mL, partner 0.0155 µg/mL
  fitness: 0.921
S. pneumoniae D39V; first compound 0.012 µg/mL, partner 0.031 µg/mL, one replicate
  fitness: 0.8
S. pneumoniae D39V; first compound 0.012 µg/mL, partner 0.062 µg/mL, one replicate
  fitness: 0.707
S. pneumoniae D39V; first compound 0.024 µg/mL, partner 0.003875 µg/mL, one replicate
  fitness: 0.834
S. pneumoniae D39V; first compound 0.024 µg/mL, partner 0.00775 µg/mL, one replicate
  fitness: 0.808
S. pneumoniae D39V; first compound 0.024 µg/mL, partner 0.0155 µg/mL
  fitness: 0.88
S. pneumoniae D39V; first compound 0.024 µg/mL, partner 0.031 µg/mL, one replicate
  fitness: 0.821
S. pneumoniae D39V; first compound 0.024 µg/mL, partner 0.062 µg/mL, one replicate
  fitness: 0.774
S. pneumoniae D39V; first compound 0.048 µg/mL, partner 0.003875 µg/mL, one replicate
  fitness: 0.774
S. pneumoniae D39V; first compound 0.048 µg/mL, partner 0.00775 µg/mL, one replicate
  fitness: 0.809
S. pneumoniae D39V; first compound 0.048 µg/mL, partner 0.0155 µg/mL
  fitness: 0.803
S. pneumoniae D39V; first compound 0.048 µg/mL, partner 0.031 µg/mL, one replicate
  fitness: 0.745
S. pneumoniae D39V; first compound 0.048 µg/mL, partner 0.062 µg/mL, one replicate
  fitness: 0.614
S. pneumoniae D39V; first compound 0.375 µg/mL, partner 0.0155 µg/mL
  fitness: 0.0318
S. pneumoniae D39V; first compound 0.375 µg/mL, partner 0.031 µg/mL
  fitness: 0.0187
S. pneumoniae D39V; first compound 0.375 µg/mL, partner 0.062 µg/mL
  fitness: 0.0418
S. pneumoniae D39V; first compound 0.75 µg/mL, partner 0.0155 µg/mL
  fitness: 0.0248
S. pneumoniae D39V; first compound 0.75 µg/mL, partner 0.031 µg/mL
  fitness: 0.0352
S. pneumoniae D39V; first compound 0.75 µg/mL, partner 0.062 µg/mL
  fitness: 0.0311
S. pneumoniae D39V; first compound 1.5 µg/mL, partner 0.0155 µg/mL
  fitness: 0.0258
S. pneumoniae D39V; first compound 1.5 µg/mL, partner 0.031 µg/mL
  fitness: 0.067
S. pneumoniae D39V; first compound 1.5 µg/mL, partner 0.062 µg/mL
  fitness: 0.047

## O=C(O)c1cn(C2CC2)c2cc(N3CCNCC3)c(F)cc2c1=O [Ciprofloxacin] + CC1(C)S[C@@H]2[C@H](NC(=O)Cc3ccccc3)C(=O)N2[C@H]1C(=O)O [Penicillin G]
S. aureus Newman; first compound 0.0375 µg/mL, partner 0.0195 µg/mL
  fitness: 0.66
S. aureus Newman; first compound 0.0375 µg/mL, partner 0.039 µg/mL
  fitness: 0.679
S. aureus Newman; first compound 0.0375 µg/mL, partner 0.078 µg/mL
  fitness: 0.688
S. aureus Newman; first compound 0.075 µg/mL, partner 0.0195 µg/mL
  fitness: 0.582
S. aureus Newman; first compound 0.075 µg/mL, partner 0.039 µg/mL
  fitness: 0.593
S. aureus Newman; first compound 0.075 µg/mL, partner 0.078 µg/mL
  fitness: 0.593
S. aureus Newman; first compound 0.15 µg/mL, partner 0.0195 µg/mL
  fitness: 0.0269
S. aureus Newman; first compound 0.15 µg/mL, partner 0.039 µg/mL
  fitness: 0.0263
S. aureus Newman; first compound 0.15 µg/mL, partner 0.078 µg/mL
  fitness: 0.024

## O=C(O)c1cn(C2CC2)c2cc(N3CCNCC3)c(F)cc2c1=O [Ciprofloxacin] + CN(C)[C@@H]1C(O)=C(C(N)=O)C(=O)[C@@]2(O)C(O)=C3C(=O)c4c(O)ccc(Cl)c4[C@@](C)(O)[C@H]3C[C@@H]12 [Chlortetracycline]
B. subtilis 168; first compound 0.0098 µg/mL, partner 0.0475 µg/mL
  fitness: 0.886
B. subtilis 168; first compound 0.0098 µg/mL, partner 0.095 µg/mL
  fitness: 0.82
B. subtilis 168; first compound 0.0098 µg/mL, partner 0.19 µg/mL
  fitness: 0.658
B. subtilis 168; first compound 0.0195 µg/mL, partner 0.0475 µg/mL
  fitness: 0.776
B. subtilis 168; first compound 0.0195 µg/mL, partner 0.095 µg/mL
  fitness: 0.692
B. subtilis 168; first compound 0.0195 µg/mL, partner 0.19 µg/mL
  fitness: 0.582
B. subtilis 168; first compound 0.039 µg/mL, partner 0.19 µg/mL
  fitness: 0.307
S. pneumoniae D39V; first compound 0.125 µg/mL, partner 0.012 µg/mL
  fitness: 0.867
S. pneumoniae D39V; first compound 0.125 µg/mL, partner 0.024 µg/mL
  fitness: 0.748
S. pneumoniae D39V; first compound 0.125 µg/mL, partner 0.048 µg/mL
  fitness: 0.35
S. pneumoniae D39V; first compound 0.125 µg/mL, partner 0.375 µg/mL
  fitness: 0.0283
S. pneumoniae D39V; first compound 0.125 µg/mL, partner 0.75 µg/mL
  fitness: 0.038
S. pneumoniae D39V; first compound 0.125 µg/mL, partner 1.5 µg/mL
  fitness: 0.0287
S. pneumoniae D39V; first compound 0.25 µg/mL, partner 0.012 µg/mL, one replicate
  fitness: 0.74
S. pneumoniae D39V; first compound 0.25 µg/mL, partner 0.024 µg/mL, one replicate
  fitness: 0.447
S. pneumoniae D39V; first compound 0.25 µg/mL, partner 0.048 µg/mL, one replicate
  fitness: 0.237
S. pneumoniae D39V; first compound 0.25 µg/mL, partner 0.375 µg/mL
  fitness: 0.0322
S. pneumoniae D39V; first compound 0.25 µg/mL, partner 0.75 µg/mL
  fitness: 0.0502
S. pneumoniae D39V; first compound 0.25 µg/mL, partner 1.5 µg/mL
  fitness: 0.0591
S. pneumoniae D39V; first compound 0.5 µg/mL, partner 0.048 µg/mL
  fitness: 0.323
S. pneumoniae D39V; first compound 0.5 µg/mL, partner 0.75 µg/mL
  fitness: 0.0332
S. pneumoniae D39V; first compound 0.5 µg/mL, partner 1.5 µg/mL
  fitness: 0.0454

## COc1cccc2c1C(=O)c1c(O)c3c(c(O)c1C2=O)C[C@@](O)(C(=O)CO)C[C@@H]3O[C@H]1C[C@H](N)[C@H](O)[C@H](C)O1 [Doxorubicin] + CC1(C)S[C@@H]2[C@H](NC(=O)Cc3ccccc3)C(=O)N2[C@H]1C(=O)O [Penicillin G]
S. aureus Newman; first compound 0.625 µg/mL, partner 0.0195 µg/mL
  fitness: 0.705
S. aureus Newman; first compound 0.625 µg/mL, partner 0.039 µg/mL
  fitness: 0.727
S. aureus Newman; first compound 0.625 µg/mL, partner 0.078 µg/mL
  fitness: 0.752
S. aureus Newman; first compound 1.25 µg/mL, partner 0.0195 µg/mL
  fitness: 0.711
S. aureus Newman; first compound 1.25 µg/mL, partner 0.039 µg/mL
  fitness: 0.718
S. aureus Newman; first compound 1.25 µg/mL, partner 0.078 µg/mL
  fitness: 0.72
S. aureus Newman; first compound 2.5 µg/mL, partner 0.0195 µg/mL
  fitness: 0.698
S. aureus Newman; first compound 2.5 µg/mL, partner 0.039 µg/mL
  fitness: 0.734
S. aureus Newman; first compound 2.5 µg/mL, partner 0.078 µg/mL
  fitness: 0.692
